{
  "source": "ChEMBL document CHEMBL1201862",
  "about": "“PubChem BioAssay data set” (2004)",
  "assay_in_all_cases": "NCI anticancer screen, dose series, 48 h",
  "key": {"BT-549": {"test_system": "BT-549"}, "CCRF-CEM": {"test_system": "CCRF-CEM"}, "NCI-H522": {"test_system": "NCI-H522"}, "DU-145": {"test_system": "DU-145"}, "MDA-MB-231": {"test_system": "MDA-MB-231"}, "A549": {"test_system": "A549"}, "SN12C": {"test_system": "SN12C"}, "SR": {"test_system": "SR"}, "NCI/ADR-RES": {"test_system": "NCI/ADR-RES"}, "NCI-H23": {"test_system": "NCI-H23"}, "RXF 393": {"test_system": "RXF 393"}, "OVCAR-8": {"test_system": "OVCAR-8"}, "SF-295": {"test_system": "SF-295"}, "OVCAR-5": {"test_system": "OVCAR-5"}, "786-0": {"test_system": "786-0"}, "UACC-257": {"test_system": "UACC-257"}, "IGROV-1": {"test_system": "IGROV-1"}, "SNB-19": {"test_system": "SNB-19"}, "SF-539": {"test_system": "SF-539"}, "HL-60": {"test_system": "HL-60"}, "T47D": {"test_system": "T47D"}, "UACC-62": {"test_system": "UACC-62"}, "MDA-MB-435": {"test_system": "MDA-MB-435"}, "OVCAR-4": {"test_system": "OVCAR-4"}, "SK-MEL-2": {"test_system": "SK-MEL-2"}, "HT-29": {"test_system": "HT-29"}, "CAKI-1": {"test_system": "CAKI-1"}, "MOLT-4": {"test_system": "MOLT-4"}, "SW-620": {"test_system": "SW-620"}, "COLO 205": {"test_system": "COLO 205"}, "SNB-75": {"test_system": "SNB-75"}, "UO-31": {"test_system": "UO-31"}, "K562": {"test_system": "K562"}, "U-251": {"test_system": "U-251"}, "SK-MEL-28": {"test_system": "SK-MEL-28"}, "LOX IMVI": {"test_system": "LOX IMVI"}, "HCT-116": {"test_system": "HCT-116"}, "NCI-H460": {"test_system": "NCI-H460"}, "PC-3": {"test_system": "PC-3"}, "NCI-H226": {"test_system": "NCI-H226"}, "HOP-62": {"test_system": "HOP-62"}, "SK-OV-3": {"test_system": "SK-OV-3"}, "RPMI-8226": {"test_system": "RPMI-8226"}, "M14": {"test_system": "M14"}, "KM12": {"test_system": "KM12"}, "HOP-92": {"test_system": "HOP-92"}, "HCC 2998": {"test_system": "HCC 2998"}, "HCT-15": {"test_system": "HCT-15"}, "SK-MEL-5": {"test_system": "SK-MEL-5"}, "OVCAR-3": {"test_system": "OVCAR-3"}, "A498": {"test_system": "A498"}, "Hs-578T": {"test_system": "Hs-578T"}, "MDA-N": {"test_system": "MDA-N"}, "EKVX": {"test_system": "EKVX"}, "MCF7": {"test_system": "MCF7"}, "ACHN": {"test_system": "ACHN"}, "SF-268": {"test_system": "SF-268"}, "TK-10": {"test_system": "TK-10"}},
  "note": "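Five concentrations, 48 hours, 96-well plates. The concentration for 50% growth inhibition is given as GI50.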 Activity calls are given as the source filed them. Cut-off read from the data, not from the text of the source: active = GI50 up to about 1.1 µM and inactive = higher.",
  "data": [
    {"smiles": "NNC(=O)CSc1nc2ccc(I)cc2c(=O)n1Cc1ccccc1", "values": [
      {"measurement": "GI50", "setting": "BT-549", "result": "23.2 µM (inactive)"},
      {"measurement": "GI50", "setting": "CCRF-CEM", "result": "3.89 µM (inactive)"},
      {"measurement": "GI50", "setting": "NCI-H522", "result": "14.9 µM (inactive)"},
      {"measurement": "GI50", "setting": "DU-145", "result": "31.2 µM (inactive)"},
      {"measurement": "GI50", "setting": "MDA-MB-231", "result": "14.3 µM (inactive)"},
      {"measurement": "GI50", "setting": "A549", "result": "24.3 µM (inactive)"},
      {"measurement": "GI50", "setting": "SN12C", "result": "21.3 µM (inactive)"},
      {"measurement": "GI50", "setting": "SR", "result": "26.5 µM (inactive)"},
      {"measurement": "GI50", "setting": "NCI/ADR-RES", "result": "40.6 µM (inactive)"},
      {"measurement": "GI50", "setting": "NCI-H23", "result": "31.5 µM (inactive)"},
      {"measurement": "GI50", "setting": "RXF 393", "result": "13.1 µM (inactive)"},
      {"measurement": "GI50", "setting": "OVCAR-8", "result": "48.4 µM (inactive)"},
      {"measurement": "GI50", "setting": "SF-295", "result": "21.9 µM (inactive)"},
      {"measurement": "GI50", "setting": "OVCAR-5", "result": "20.4 µM (inactive)"},
      {"measurement": "GI50", "setting": "786-0", "result": "15.6 µM (inactive)"},
      {"measurement": "GI50", "setting": "UACC-257", "result": "19.9 µM (inactive)"},
      {"measurement": "GI50", "setting": "IGROV-1", "result": "24.4 µM (inactive)"},
      {"measurement": "GI50", "setting": "SNB-19", "result": "23.3 µM (inactive)"},
      {"measurement": "GI50", "setting": "SF-539", "result": "19.7 µM (inactive)"},
      {"measurement": "GI50", "setting": "HL-60", "result": "20.6 µM (inactive)"},
      {"measurement": "GI50", "setting": "T47D", "result": "22.5 µM (inactive)"},
      {"measurement": "GI50", "setting": "UACC-62", "result": "18.6 µM (inactive)"},
      {"measurement": "GI50", "setting": "MDA-MB-435", "result": "35.2 µM (inactive)"},
      {"measurement": "GI50", "setting": "OVCAR-4", "result": "19.5 µM (inactive)"},
      {"measurement": "GI50", "setting": "SK-MEL-2", "result": "20.4 µM (inactive)"},
      {"measurement": "GI50", "setting": "HT-29", "result": "21.7 µM (inactive)"},
      {"measurement": "GI50", "setting": "CAKI-1", "result": "15.3 µM (inactive)"},
      {"measurement": "GI50", "setting": "MOLT-4", "result": "15 µM (inactive)"},
      {"measurement": "GI50", "setting": "SW-620", "result": "33 µM (inactive)"},
      {"measurement": "GI50", "setting": "COLO 205", "result": "21.5 µM (inactive)"},
      {"measurement": "GI50", "setting": "SNB-75", "result": "22.9 µM (inactive)"},
      {"measurement": "GI50", "setting": "UO-31", "result": "15.9 µM (inactive)"},
      {"measurement": "GI50", "setting": "K562", "result": "26.1 µM (inactive)"},
      {"measurement": "GI50", "setting": "U-251", "result": "20.3 µM (inactive)"},
      {"measurement": "GI50", "setting": "SK-MEL-28", "result": "28.4 µM (inactive)"},
      {"measurement": "GI50", "setting": "LOX IMVI", "result": "15.6 µM (inactive)"},
      {"measurement": "GI50", "setting": "HCT-116", "result": "18.4 µM (inactive)"},
      {"measurement": "GI50", "setting": "NCI-H460", "result": "18.8 µM (inactive)"},
      {"measurement": "GI50", "setting": "PC-3", "result": "22.8 µM (inactive)"},
      {"measurement": "GI50", "setting": "NCI-H226", "result": "18.8 µM (inactive)"},
      {"measurement": "GI50", "setting": "HOP-62", "result": "19 µM (inactive)"},
      {"measurement": "GI50", "setting": "SK-OV-3", "result": "15.7 µM (inactive)"},
      {"measurement": "GI50", "setting": "RPMI-8226", "result": "21.6 µM (inactive)"},
      {"measurement": "GI50", "setting": "M14", "result": "18.2 µM (inactive)"},
      {"measurement": "GI50", "setting": "KM12", "result": "23.5 µM (inactive)"},
      {"measurement": "GI50", "setting": "HOP-92", "result": "30.5 µM (inactive)"},
      {"measurement": "GI50", "setting": "HCC 2998", "result": "16.8 µM (inactive)"},
      {"measurement": "GI50", "setting": "HCT-15", "result": 36.6, "unit": "µM"},
      {"measurement": "GI50", "setting": "SK-MEL-5", "result": "17.2 µM (inactive)"},
      {"measurement": "GI50", "setting": "OVCAR-3", "result": "18.4 µM (inactive)"},
      {"measurement": "GI50", "setting": "A498", "result": "14.2 µM (inactive)"},
      {"measurement": "GI50", "setting": "Hs-578T", "result": "20.9 µM (inactive)"},
      {"measurement": "GI50", "setting": "MDA-N", "result": "31.8 µM (inactive)"},
      {"measurement": "GI50", "setting": "EKVX", "result": "13.1 µM (inactive)"},
      {"measurement": "GI50", "setting": "MCF7", "result": "22.2 µM (inactive)"},
      {"measurement": "GI50", "setting": "ACHN", "result": "18.7 µM (inactive)"},
      {"measurement": "GI50", "setting": "SF-268", "result": "17.5 µM (inactive)"},
      {"measurement": "GI50", "setting": "TK-10", "result": "16.9 µM (inactive)"}
    ]}
  ]
}
